Tests used:
Test in all cases: relative viability (nuclei count vs DMSO), 5 days (fraction); higher = more cells survive
Nelarabine + AZD7762 = compound: COc1nc(N)nc2c1ncn2[C@@H]1O[C@H](CO)[C@@H](O)[C@@H]1O [Nelarabine] + NC(=O)Nc1cc(-c2cccc(F)c2)sc1C(=O)N[C@H]1CCCNC1 [AZD7762] (partner 0.2 µM)
Summary of the method: (§1)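 A single step with final 0.05% Triton X-100, 1% formaldehyde and 1 ug/ml Hoechst fixed the cells and stained nuclei 5 days after treatment. Lung cancer cell lines in 1536-well plates had been treated by pin tool the day after seeding with one drug alone or a fixed anchor-drug dose plus five library-drug doses (not always all listed) in √10 steps, and nuclei were counted on 4× images. Relative viability is the ratio of nuclei in treated wells to nuclei in vehicle wells, taken as the median of duplicate plates.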

Nelarabine + Phenformin = compound: COc1nc(N)nc2c1ncn2[C@@H]1O[C@H](CO)[C@@H](O)[C@@H]1O [Nelarabine] + N=C(N)NC(=N)NCCc1ccccc1 [Phenformin] (partner 250 µM)
Summary of the method: as §1

Adavosertib + Bortezomib = compound: C=CCn1c(=O)c2cnc(Nc3ccc(N4CCN(C)CC4)cc3)nc2n1-c1cccc(C(C)(C)O)n1 [Adavosertib] + CC(C)C[C@H](NC(=O)[C@H](Cc1ccccc1)NC(=O)c1cnccn1)B(O)O [Bortezomib] (partner 0.002 µM)
Summary of the method: as §1

Adavosertib + Vorinostat = compound: C=CCn1c(=O)c2cnc(Nc3ccc(N4CCN(C)CC4)cc3)nc2n1-c1cccc(C(C)(C)O)n1 [Adavosertib] + O=C(CCCCCCC(=O)Nc1ccccc1)NO [Vorinostat] (partner 1 µM)
Summary of the method: as §1

Cell Line: NCI-H2126
- relative viability (Nelarabine + AZD7762; first compound 0.01 µM): 1.02
- relative viability (Nelarabine + AZD7762; first compound 0.03162 µM): 1.07
- relative viability (Nelarabine + AZD7762; first compound 0.1 µM): 1.05
- relative viability (Nelarabine + AZD7762; first compound 0.3162 µM): 1.04
- relative viability (Nelarabine + AZD7762; first compound 1 µM): 0.997
- relative viability (Nelarabine + Phenformin; first compound 0.01 µM): 0.593
- relative viability (Nelarabine + Phenformin; first compound 0.03162 µM): 0.545
- relative viability (Nelarabine + Phenformin; first compound 0.1 µM): 0.51
- relative viability (Nelarabine + Phenformin; first compound 0.3162 µM): 0.508
- relative viability (Nelarabine + Phenformin; first compound 1 µM): 0.517
- relative viability (Adavosertib + Bortezomib; first compound 0.01 µM): 1.12
- relative viability (Adavosertib + Bortezomib; first compound 0.03162 µM): 1.17
- relative viability (Adavosertib + Bortezomib; first compound 0.1 µM): 1.11
- relative viability (Adavosertib + Bortezomib; first compound 0.3162 µM): 1.15
- relative viability (Adavosertib + Vorinostat; first compound 0.01 µM): 0.738
- relative viability (Adavosertib + Vorinostat; first compound 0.03162 µM): 0.759
- relative viability (Adavosertib + Vorinostat; first compound 0.1 µM): 0.781
- relative viability (Adavosertib + Vorinostat; first compound 0.3162 µM): 0.789

Cell Line: HOP-62
- relative viability (Nelarabine + AZD7762; first compound 0.01 µM): 0.684
- relative viability (Nelarabine + AZD7762; first compound 0.03162 µM): 0.396
- relative viability (Nelarabine + AZD7762; first compound 0.1 µM): 0.602
- relative viability (Nelarabine + AZD7762; first compound 0.3162 µM): 0.798
- relative viability (Nelarabine + AZD7762; first compound 1 µM): 0.48
- relative viability (Nelarabine + Phenformin; first compound 0.01 µM): 0.787
- relative viability (Nelarabine + Phenformin; first compound 0.03162 µM): 0.508
- relative viability (Nelarabine + Phenformin; first compound 0.1 µM): 0.696
- relative viability (Nelarabine + Phenformin; first compound 0.3162 µM): 0.777
- relative viability (Nelarabine + Phenformin; first compound 1 µM): 0.667
- relative viability (Adavosertib + Bortezomib; first compound 0.01 µM): 0.941
- relative viability (Adavosertib + Bortezomib; first compound 0.03162 µM): 1.08
- relative viability (Adavosertib + Bortezomib; first compound 0.1 µM): 1.03
- relative viability (Adavosertib + Bortezomib; first compound 0.3162 µM): 1.03
- relative viability (Adavosertib + Vorinostat; first compound 0.01 µM): 0.689
- relative viability (Adavosertib + Vorinostat; first compound 0.03162 µM): 0.653
- relative viability (Adavosertib + Vorinostat; first compound 0.1 µM): 0.733
- relative viability (Adavosertib + Vorinostat; first compound 0.3162 µM): 0.62

Cell Line: NCI-H647
- relative viability (Nelarabine + AZD7762; first compound 0.01 µM): 0.554
- relative viability (Nelarabine + AZD7762; first compound 0.03162 µM): 0.294
- relative viability (Nelarabine + AZD7762; first compound 0.1 µM): 0.563
- relative viability (Nelarabine + AZD7762; first compound 0.3162 µM): 0.58
- relative viability (Nelarabine + AZD7762; first compound 1 µM): 0.431
- relative viability (Nelarabine + Phenformin; first compound 0.01 µM): 0.641
- relative viability (Nelarabine + Phenformin; first compound 0.03162 µM): 0.301
- relative viability (Nelarabine + Phenformin; first compound 0.1 µM): 0.631
- relative viability (Nelarabine + Phenformin; first compound 0.3162 µM): 0.501
- relative viability (Nelarabine + Phenformin; first compound 1 µM): 0.427
- relative viability (Adavosertib + Bortezomib; first compound 0.01 µM): 1.01
- relative viability (Adavosertib + Bortezomib; first compound 0.03162 µM): 0.748
- relative viability (Adavosertib + Bortezomib; first compound 0.1 µM): 1.11
- relative viability (Adavosertib + Bortezomib; first compound 0.3162 µM): 0.642
- relative viability (Adavosertib + Vorinostat; first compound 0.01 µM): 0.632
- relative viability (Adavosertib + Vorinostat; first compound 0.03162 µM): 0.538
- relative viability (Adavosertib + Vorinostat; first compound 0.1 µM): 0.643
- relative viability (Adavosertib + Vorinostat; first compound 0.3162 µM): 0.212

Cell Line: NCI-H727
- relative viability (Nelarabine + AZD7762; first compound 0.01 µM): 0.497
- relative viability (Nelarabine + AZD7762; first compound 0.03162 µM): 0.525
- relative viability (Nelarabine + AZD7762; first compound 0.1 µM): 0.463
- relative viability (Nelarabine + AZD7762; first compound 0.3162 µM): 0.543
- relative viability (Nelarabine + AZD7762; first compound 1 µM): 0.463
- relative viability (Nelarabine + Phenformin; first compound 0.01 µM): 0.604
- relative viability (Nelarabine + Phenformin; first compound 0.03162 µM): 0.589
- relative viability (Nelarabine + Phenformin; first compound 0.1 µM): 0.642
- relative viability (Nelarabine + Phenformin; first compound 0.3162 µM): 0.508
- relative viability (Nelarabine + Phenformin; first compound 1 µM): 0.682
- relative viability (Adavosertib + Bortezomib; first compound 0.01 µM): 0.867
- relative viability (Adavosertib + Bortezomib; first compound 0.03162 µM): 0.869
- relative viability (Adavosertib + Bortezomib; first compound 0.1 µM): 0.877
- relative viability (Adavosertib + Bortezomib; first compound 0.3162 µM): 0.945
- relative viability (Adavosertib + Vorinostat; first compound 0.01 µM): 0.934
- relative viability (Adavosertib + Vorinostat; first compound 0.03162 µM): 1.13
- relative viability (Adavosertib + Vorinostat; first compound 0.1 µM): 1.13
- relative viability (Adavosertib + Vorinostat; first compound 0.3162 µM): 1.15

Cell Line: NCI-H441
- relative viability (Nelarabine + AZD7762; first compound 0.01 µM): 1.33
- relative viability (Nelarabine + AZD7762; first compound 0.03162 µM): 1.2
- relative viability (Nelarabine + AZD7762; first compound 0.1 µM): 1.43
- relative viability (Nelarabine + AZD7762; first compound 0.3162 µM): 1.14
- relative viability (Nelarabine + AZD7762; first compound 1 µM): 1.23
- relative viability (Nelarabine + Phenformin; first compound 0.01 µM): 0.862
- relative viability (Nelarabine + Phenformin; first compound 0.03162 µM): 0.93
- relative viability (Nelarabine + Phenformin; first compound 0.1 µM): 0.666
- relative viability (Nelarabine + Phenformin; first compound 0.3162 µM): 0.898
- relative viability (Nelarabine + Phenformin; first compound 1 µM): 0.883
- relative viability (Adavosertib + Bortezomib; first compound 0.01 µM): 0.38
- relative viability (Adavosertib + Bortezomib; first compound 0.03162 µM): 0.761
- relative viability (Adavosertib + Bortezomib; first compound 0.1 µM): 0.414
- relative viability (Adavosertib + Bortezomib; first compound 0.3162 µM): 0.354
- relative viability (Adavosertib + Vorinostat; first compound 0.01 µM): 0.848
- relative viability (Adavosertib + Vorinostat; first compound 0.03162 µM): 0.829
- relative viability (Adavosertib + Vorinostat; first compound 0.1 µM): 0.881
- relative viability (Adavosertib + Vorinostat; first compound 0.3162 µM): 0.72

Cell Line: LCLC-97TM1
- relative viability (Nelarabine + AZD7762; first compound 0.01 µM): 0.273
- relative viability (Nelarabine + AZD7762; first compound 0.1 µM): 0.351
- relative viability (Nelarabine + AZD7762; first compound 0.3162 µM): 0.281
- relative viability (Nelarabine + AZD7762; first compound 1 µM): 0.215
- relative viability (Nelarabine + Phenformin; first compound 0.01 µM): 0.506
- relative viability (Nelarabine + Phenformin; first compound 0.03162 µM): 0.446
- relative viability (Nelarabine + Phenformin; first compound 0.1 µM): 0.339
- relative viability (Nelarabine + Phenformin; first compound 0.3162 µM): 0.426
- relative viability (Nelarabine + Phenformin; first compound 1 µM): 0.42
- relative viability (Adavosertib + Bortezomib; first compound 0.01 µM): 0.284
- relative viability (Adavosertib + Bortezomib; first compound 0.03162 µM): 0.635
- relative viability (Adavosertib + Bortezomib; first compound 0.1 µM): 0.577
- relative viability (Adavosertib + Bortezomib; first compound 0.3162 µM): 0.233
- relative viability (Adavosertib + Vorinostat; first compound 0.01 µM): 0.809
- relative viability (Adavosertib + Vorinostat; first compound 0.03162 µM): 0.71
- relative viability (Adavosertib + Vorinostat; first compound 0.1 µM): 0.77
- relative viability (Adavosertib + Vorinostat; first compound 0.3162 µM): 0.573

Cell Line: NCI-H2405
- relative viability (Nelarabine + AZD7762; first compound 0.01 µM): 0.837
- relative viability (Nelarabine + AZD7762; first compound 0.03162 µM): 0.647
- relative viability (Nelarabine + AZD7762; first compound 0.1 µM): 0.71
- relative viability (Nelarabine + AZD7762; first compound 0.3162 µM): 0.736
- relative viability (Nelarabine + AZD7762; first compound 1 µM): 0.81
- relative viability (Nelarabine + Phenformin; first compound 0.01 µM): 0.385
- relative viability (Nelarabine + Phenformin; first compound 0.03162 µM): 0.395
- relative viability (Nelarabine + Phenformin; first compound 0.1 µM): 0.357
- relative viability (Nelarabine + Phenformin; first compound 0.3162 µM): 0.383
- relative viability (Nelarabine + Phenformin; first compound 1 µM): 0.26
- relative viability (Adavosertib + Bortezomib; first compound 0.01 µM): 0.984
- relative viability (Adavosertib + Bortezomib; first compound 0.03162 µM): 1.01
- relative viability (Adavosertib + Bortezomib; first compound 0.1 µM): 1.01
- relative viability (Adavosertib + Bortezomib; first compound 0.3162 µM): 1.07
- relative viability (Adavosertib + Vorinostat; first compound 0.03162 µM): 0.882
- relative viability (Adavosertib + Vorinostat; first compound 0.1 µM): 0.965
- relative viability (Adavosertib + Vorinostat; first compound 0.3162 µM): 0.895

Cell Line: NCI-H460
- relative viability (Nelarabine + AZD7762; first compound 0.01 µM): 0.79
- relative viability (Nelarabine + AZD7762; first compound 0.03162 µM): 0.626
- relative viability (Nelarabine + AZD7762; first compound 0.1 µM): 0.616
- relative viability (Nelarabine + AZD7762; first compound 0.3162 µM): 0.558
- relative viability (Nelarabine + AZD7762; first compound 1 µM): 0.323
- relative viability (Nelarabine + Phenformin; first compound 0.01 µM): 1.35
- relative viability (Nelarabine + Phenformin; first compound 0.03162 µM): 0.648
- relative viability (Nelarabine + Phenformin; first compound 0.1 µM): 0.646
- relative viability (Nelarabine + Phenformin; first compound 0.3162 µM): 0.611
- relative viability (Nelarabine + Phenformin; first compound 1 µM): 0.482
- relative viability (Adavosertib + Bortezomib; first compound 0.01 µM): 1.14
- relative viability (Adavosertib + Bortezomib; first compound 0.03162 µM): 0.966
- relative viability (Adavosertib + Bortezomib; first compound 0.1 µM): 1.22
- relative viability (Adavosertib + Bortezomib; first compound 0.3162 µM): 0.966
- relative viability (Adavosertib + Vorinostat; first compound 0.01 µM): 0.712
- relative viability (Adavosertib + Vorinostat; first compound 0.03162 µM): 0.702
- relative viability (Adavosertib + Vorinostat; first compound 0.1 µM): 0.906
- relative viability (Adavosertib + Vorinostat; first compound 0.3162 µM): 0.355

From the supplement of paper PMC10307832
